Experimental data published in ChEMBL document CHEMBL6103654, “Design, Biological Characterization, and Discovery of Capromorelin Derivatives as Oral Growth Hormone Secretagogue Receptor Type 1a Agonist for the Treatment of Growth Hormone Deficiency” (J Med Chem, 2025).

What was measured:
[1] = Agonist activity at human GHSR expressed in CHO cells incubated for 60 min by FLIPR assay; format: cell-based; details: 1 h
[2] = Toxicity in Sprague-Dawley rat assessed as effect on hepatic cords at 10 to 100 mg/kg, po administered once daily for 14 days; format: organism-based; details: in vivo, 336 h, dose 10-100 mg/kg, time 14 day
[3] = Clearance in male dog plasma at 0.5 mg/kg, iv administered as single dose measured after 4 hrs; format: ADME, organism-based, Canis lupus familiaris
Rattus norvegicus [4] = assay: Induction of growth hormone level in Juvenile Sprague-Dawley rat blood at 0.1 mg/kg, po administered as single dose measured after 40 mins by ELISA method (reference value: 40.1+/-11.0 ng/mL); format: functional
[5] = Toxicity in Sprague-Dawley rat assessed as change in hepatic structure by measuring hepatic lobules at 10 to 100 mg/kg, po administered once daily for 14 days; format: organism-based; details: in vivo, 336 h, dose 10-100 mg/kg, time 14 day
[6] = Metabolic stability in mouse liver microsome assessed as hepatic clearance at 1 uM measured upto 60 mins in presence of NADPH by LC-MS/MS analysis; format: ADME; details: liver microsomes, read-out: CLH
Rattus norvegicus [7] = assay: Induction of growth hormone level in Juvenile Sprague-Dawley rat blood at 0.1 mg/kg, po administered as single dose measured after 1 hr by ELISA method (reference value: 45.2+/-12.5 ng/mL); format: functional
Rattus norvegicus [8] = assay: Induction of growth hormone level in Juvenile Sprague-Dawley rat blood at 0.2 mg/kg, po administered as single dose measured after 10 mins by ELISA method (reference value: 23.2+/-5.6 ng/mL); format: functional
[9] = Metabolic stability in monkey liver microsome assessed as hepatic clearance at 1 uM measured upto 60 mins in presence of NADPH by LC-MS/MS analysis; format: ADME, Macaca mulatta; details: rhesus monkey, liver microsomes, read-out: CLH
[10] = Metabolic stability in human liver microsome assessed as intrinsic clearance at 1 uM measured upto 60 mins in presence of NADPH by LC-MS/MS analysis; format: ADME; details: liver microsomes, read-out: CLH
Rattus norvegicus [11] = assay: Induction of growth hormone level in Juvenile Sprague-Dawley rat blood at 0.5 mg/kg, po administered as single dose measured after 10 mins by ELISA method (reference value: 23.2+/-5.6 ng/mL); format: functional
Rattus norvegicus [12] = assay: Induction of growth hormone level in Juvenile Sprague-Dawley rat blood by measuring AUC(0 to 40 mins) at 0.2 mg/kg, po administered as single dose by ELISA method (reference value: 20.2+/-4.3 ng/mL); format: functional, organism-based
[13] = Metabolic stability in dog liver microsome assessed as intrinsic clearance at 1 uM measured upto 60 mins in presence of NADPH by LC-MS/MS analysis; format: ADME, Canis lupus familiaris; details: liver microsomes, read-out: CLH
[14] = Metabolic stability in rat liver microsome assessed as intrinsic clearance at 1 uM measured upto 60 mins in presence of NADPH by LC-MS/MS analysis; format: ADME; details: liver microsomes, read-out: CLH
[15] = Metabolic stability in rat liver microsome assessed as hepatic clearance at 1 uM measured upto 60 mins in presence of NADPH by LC-MS/MS analysis; format: ADME; details: liver microsomes, read-out: CLH
[16] = Cmax in male monkey at 2 mg/kg, po administered as single dose measured after 4 hrs; format: ADME, organism-based, Macaca mulatta; details: rhesus monkey, in vivo
Rattus norvegicus [17] = assay: Induction of growth hormone level in Juvenile Sprague-Dawley rat blood by measuring AUC(0 to 40 mins) at 0.5 mg/kg, po administered as single dose by ELISA method (reference value: 20.2+/-4.3 ng/mL); format: functional, organism-based
Rattus norvegicus [18] = assay: Induction of growth hormone level in Juvenile Sprague-Dawley rat blood at 0.1 mg/kg, po administered as single dose measured after 4 hrs by ELISA method (reference value: 32.5+/-4.5 ng/mL); format: functional
[19] = Oral bioavailability in male mouse at 2 mg/kg administered as single dose measured after 4 hrs; format: ADME, organism-based; details: in vivo
Rattus norvegicus [20] = species: Rattus norvegicus; assay: Induction of growth hormone level in 4 week-old Sprague-Dawley rat assessed as increase in body length measured after 10 days; format: functional, organism-based; details: time 10.0 day
[21] = molecular target: Voltage-gated inwardly rectifying potassium channel KCNH2 (Homo sapiens, UniProt Q12809); assay: Inhibition of human ERG expressed in HEK293 cells by patch clamp assay; format: toxicity, cell-based
[22] = molecular target: T1, 5-hydroxytryptamine receptor 3A (Homo sapiens, UniProt P46098); assay: Inhibition of human HTR3A by fluorimetry analysis
T1 sequence (P46098 whole entry): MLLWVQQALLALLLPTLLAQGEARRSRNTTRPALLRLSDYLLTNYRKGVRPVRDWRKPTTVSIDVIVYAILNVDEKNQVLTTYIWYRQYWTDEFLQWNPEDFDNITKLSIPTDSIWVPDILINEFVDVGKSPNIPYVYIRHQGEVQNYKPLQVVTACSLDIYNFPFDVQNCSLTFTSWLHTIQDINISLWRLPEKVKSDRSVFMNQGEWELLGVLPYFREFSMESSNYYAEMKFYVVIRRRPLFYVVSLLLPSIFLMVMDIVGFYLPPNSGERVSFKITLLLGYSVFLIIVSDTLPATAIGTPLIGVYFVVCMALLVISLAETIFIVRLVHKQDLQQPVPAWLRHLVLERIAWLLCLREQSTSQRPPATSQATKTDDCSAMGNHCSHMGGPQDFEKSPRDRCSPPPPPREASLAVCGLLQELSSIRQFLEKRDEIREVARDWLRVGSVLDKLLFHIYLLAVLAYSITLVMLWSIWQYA

[23] = Agonist activity at monkey GHSR expressed in CHO cells incubated for 60 min by FLIPR assay; format: cell-based; details: Macaca mulatta, 1 h
[24] = Genotoxicity in Salmonella typhimurium TA98 by Ames test; format: toxicity; details: salmonella enterica subsp. enterica serovar typhimurium

Voltage-gated inwardly rectifying potassium channel KCNH2, sequence (Q12809 whole entry): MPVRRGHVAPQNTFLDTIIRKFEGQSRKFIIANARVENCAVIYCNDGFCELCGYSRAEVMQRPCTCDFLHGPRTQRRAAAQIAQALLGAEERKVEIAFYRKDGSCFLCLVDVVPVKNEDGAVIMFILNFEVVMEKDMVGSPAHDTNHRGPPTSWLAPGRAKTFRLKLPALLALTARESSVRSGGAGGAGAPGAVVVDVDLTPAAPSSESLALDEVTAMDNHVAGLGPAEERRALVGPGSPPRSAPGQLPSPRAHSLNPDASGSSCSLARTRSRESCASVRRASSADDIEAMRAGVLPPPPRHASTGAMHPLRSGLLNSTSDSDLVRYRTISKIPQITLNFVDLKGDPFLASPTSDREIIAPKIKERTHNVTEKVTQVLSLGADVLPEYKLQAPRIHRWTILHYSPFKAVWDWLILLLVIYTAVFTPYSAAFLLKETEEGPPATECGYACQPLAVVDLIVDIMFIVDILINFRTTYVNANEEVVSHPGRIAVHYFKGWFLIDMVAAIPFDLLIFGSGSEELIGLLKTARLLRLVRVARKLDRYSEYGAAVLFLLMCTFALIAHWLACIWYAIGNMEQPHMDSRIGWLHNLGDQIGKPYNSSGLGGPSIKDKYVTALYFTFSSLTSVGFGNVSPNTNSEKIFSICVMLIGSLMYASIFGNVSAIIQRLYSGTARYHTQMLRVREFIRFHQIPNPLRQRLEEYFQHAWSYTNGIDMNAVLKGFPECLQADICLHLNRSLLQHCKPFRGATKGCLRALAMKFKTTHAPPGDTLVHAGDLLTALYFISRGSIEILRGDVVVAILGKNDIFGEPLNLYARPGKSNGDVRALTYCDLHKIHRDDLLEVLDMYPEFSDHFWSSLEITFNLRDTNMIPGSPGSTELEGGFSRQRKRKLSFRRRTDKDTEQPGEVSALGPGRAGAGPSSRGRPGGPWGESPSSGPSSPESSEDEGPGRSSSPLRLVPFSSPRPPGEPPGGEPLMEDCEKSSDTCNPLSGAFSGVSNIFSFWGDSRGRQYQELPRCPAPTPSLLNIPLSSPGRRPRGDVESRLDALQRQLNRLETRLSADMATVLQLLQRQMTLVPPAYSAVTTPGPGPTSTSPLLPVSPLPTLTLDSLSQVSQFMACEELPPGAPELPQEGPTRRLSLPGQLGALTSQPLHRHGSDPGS

**Q.** What does the source list for CC(C)(N)C(=O)N[C@H](COCc1ccccc1)C(=O)N1CCC2=NN(C3CC3)C(=O)[C@]2(Cc2ccccc2)C1?
**A.** EC50 [1]: 0.55 nM; Activity [2]: Non-toxic; clearance [3]: 35 mL/min/kg; Activity (Rattus norvegicus [4]): 74.5 ng/mL; Activity [5]: Non-toxic; CLint scaled at 1 µM [6]: 1370 mL/min/kg; Activity (Rattus norvegicus [7]): 37.8 ng/mL; Activity (Rattus norvegicus [8]): 200.8 ng/mL; CLint scaled at 1 µM [9]: 541 mL/min/kg; microsomal CLint at 1 µM [10]: 123 µL/min/mg; Activity (Rattus norvegicus [11]): 230.9 ng/mL; AUC (Rattus norvegicus [12]): 102 ng·h/mL; microsomal CLint at 1 µM [13]: 134 µL/min/mg; microsomal CLint at 1 µM [14]: 140 µL/min/mg; CLint scaled at 1 µM [15]: 342 mL/min/kg; Cmax [16]: 43.4 ng/mL; AUC (Rattus norvegicus [17]): 110 ng·h/mL; Activity (Rattus norvegicus [18]): 41.4 ng/mL; bioavailability [19]: 33.9%; Activity (Rattus norvegicus [20]): Dose-dependent-effect; IC50 [21]: > 30000 nM; IC50 [22]: 3060 nM; EC50 [23]: 0.046 nM; Activity [24]: Non-toxic
